In patent US20190275012A9, “SUBSTITUTED THIAZOLO-PYRIDINE COMPOUNDS AS MALT1 INHIBITORS” (Lupin Limited, priority 2016, published 2019):

How the values were obtained:
[1] = system: NF-kB transcriptional activity in HEK-293-NF-kB-Luc cell line overexpressing MALT1; assay: NF-kB reporter assay (luciferase, MALT1 stably overexpressed); format: cell-based; details: Homo sapiens, 24 h, HEK-293-NF-kB-Luc cells stably overexpressing MALT1, 24 h treatment, Bright Glo luminescence; read-out: NF-kB inhibition IC50
How it was run: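 HEK-293-NF-κB-Luc cells stably overexpressing MALT1 were seeded overnight, then exposed to test compounds for 24 h. Bright Glo added 10 min at ambient temperature and luminescence read; % inhibition calculated against 0.1% DMSO controls.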

OCI-Ly-10 cells = assay: Anticancer assay (14 days), cell viability by CCK-8; format: cell-based; details: Homo sapiens, OCI-Ly10, 336 h, 14 days treatment, fresh treatment every 5th day, CCK-8 viability, read-out: Ly-10 (14d) inhibition IC50
How it was run: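 OCI-Ly-10 cells in IMDM + 20% FBS exposed to compound for 13–15 days, with media and compound refreshed every 5th day. Viability by CCK-8 absorbance at 450 nm (650 nm background); % inhibition versus 0.1% DMSO medium control.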

full length MALT1 enzyme = biological target: T1, full length MALT1 enzyme (Homo sapiens, UniProt Q9UDY8); assay: MALT1 biochemical assay (fluorescence based, Ac-Leu-Arg-Ser-Arg-AMC cleavage); details: full length MALT1 protein, 2 h pre-incubation at RT, tetrapeptide substrate Ac-Leu-Arg-Ser-Arg-AMC, read-out: Malt 1 inhibition IC50
T1 construct: a fluorescence based assay with full length MALT1 enzyme
T1 sequence (Q9UDY8 1-824): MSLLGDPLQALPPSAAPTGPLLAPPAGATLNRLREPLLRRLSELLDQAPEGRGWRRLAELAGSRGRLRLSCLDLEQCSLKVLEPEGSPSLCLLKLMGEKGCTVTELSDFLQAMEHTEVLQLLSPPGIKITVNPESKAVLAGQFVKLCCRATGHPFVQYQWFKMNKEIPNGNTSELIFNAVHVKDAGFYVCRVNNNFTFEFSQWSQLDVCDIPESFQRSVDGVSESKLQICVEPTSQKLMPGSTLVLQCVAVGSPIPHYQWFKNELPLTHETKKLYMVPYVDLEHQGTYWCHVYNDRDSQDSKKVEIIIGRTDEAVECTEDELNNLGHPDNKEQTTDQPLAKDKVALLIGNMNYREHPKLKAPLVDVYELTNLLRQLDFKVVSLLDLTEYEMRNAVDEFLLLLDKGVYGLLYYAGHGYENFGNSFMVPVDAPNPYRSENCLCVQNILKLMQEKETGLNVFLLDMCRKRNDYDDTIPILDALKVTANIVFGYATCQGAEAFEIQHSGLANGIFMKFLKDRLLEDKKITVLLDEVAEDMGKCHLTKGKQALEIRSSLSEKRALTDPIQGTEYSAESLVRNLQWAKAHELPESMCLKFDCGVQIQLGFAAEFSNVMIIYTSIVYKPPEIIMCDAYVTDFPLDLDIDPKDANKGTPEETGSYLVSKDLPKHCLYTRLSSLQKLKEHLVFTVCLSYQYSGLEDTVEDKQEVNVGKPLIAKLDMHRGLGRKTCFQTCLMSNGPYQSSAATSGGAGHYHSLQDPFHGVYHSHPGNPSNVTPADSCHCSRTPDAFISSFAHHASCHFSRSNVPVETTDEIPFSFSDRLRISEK
How it was run: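 Full-length MALT1 (100-300 ng/well) was pre-incubated with compound for 2 h at RT, then 100 μM Ac-LRSR-AMC was added for 4-12 h. Buffer was 50 mM MES, 150 mM NaCl, 0.1% CHAPS, 1 M ammonium citrate, 10 mM DTT, pH 7, with 0.5% DMSO. IC50 was derived from AMC fluorescence (ex 360/em 460 nm).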

IC50 (OCI-Ly-10 cells) [nM]	IC50 (full length MALT1 enzyme) [nM]	Structure (SMILES)	IC50 [1] [nM]
251 to 500	51 to 100	COC(C)c1c(NC(=O)Nc2cc(-n3nccn3)cc(C(F)(F)F)c2)cnc2sc(C)nc12 (single isomer, unassigned) [Compound 217b, (S) or (R)-1-(3-(2H-1,2,3-triazol-2-yl)-5-(trifluoromethyl)phenyl)-3-(7-(1-methoxyethyl)-2-methylthiazolo[5,4-b]pyridin-6-yl)urea]	1 to 100
101 to 250	1 to 50	COc1ncc(NC(=O)Nc2cnc3sc(C)nc3c2C2CC2)cc1Cl [Compound 1, 1-(5-Chloro-6-methoxypyridin-3-yl)-3-(7-cyclopropyl-2-methylthiazolo [5,4-b]pyridin-6-yl)urea]	1 to 100
251 to 500	1 to 50	COc1ccc(NC(=O)Nc2cnc3sc(C)nc3c2C2CC2)cc1Cl [Compound 2, 1-(3-Chloro-4-methoxyphenyl)-3-(7-cyclopropyl-2-methylthiazolo[5,4-b]pyridin-6-yl)urea]	501 to 1500
26 to 100	1 to 50	Cc1nc2c(C3CC3)c(NC(=O)Nc3cnc(-n4nccn4)c(Cl)c3)cnc2s1 [Compound 9, 1-(5-Chloro-6-(2H-1,2,3-triazol-2-yl)pyridin-3-yl)-3-(7-cyclopropyl-2-methylthiazolo[5,4-b]pyridin-6-yl)urea]	1 to 100
101 to 250	1 to 50	CCc1c(NC(=O)Nc2cnc(OC)c(Cl)c2)cnc2sc(C)nc12 [Compound 26, 1-(5-Chloro-6-methoxypyridin-3-yl)-3-(7-ethyl-2-methylthiazolo[5,4-b]pyridin-6-yl)urea]	101 to 500
501 to 1500	1 to 50	Cc1nc2c(N3CCOCC3)c(NC(=O)Nc3cnc(-n4nccn4)c(Cl)c3)cnc2s1 [Compound 28, 1-(5-Chloro-6-(2H-1,2,3-triazol-2-yl)pyridin-3-yl)-3-(2-methyl-7-morpholinothiazolo[5,4-b]pyridin-6-yl)urea]	101 to 500
26 to 100	1 to 50	COCCN(c1c(NC(=O)Nc2cnc(-n3nccn3)c(Cl)c2)cnc2sc(C)nc12)C1CC1 [Compound 49, 1-(5-Chloro-6-(2H-1,2,3-triazol-2-yl)pyridin-3-yl)-3-(7-(cyclopropyl(2-methoxyethyl)amino)-2-methylthiazolo[5,4-b]pyridin-6-yl)urea]	1 to 100
26 to 100	1 to 50	Cc1nc2c(C3=CCCCC3)c(NC(=O)Nc3cnc(-n4nccn4)c(Cl)c3)cnc2s1 [Compound 59, 1-(5-Chloro-6-(2H-1,2,3-triazol-2-yl)pyridin-3-yl)-3-(7-(cyclohex-1-en-1-yl)-2-methylthiazolo[5,4-b]pyridin-6-yl)urea]	101 to 500
0.1 to 25	1 to 50	COC(C)(C)c1c(NC(=O)Nc2cnc(-n3nccn3)c(C(F)(F)F)c2)cnc2sc(C)nc12 [Compound 96, 1-(6-(2H-1,2,3-Triazol-2-yl)-5-(trifluoromethyl)pyridin-3-yl)-3-(7-(2-methoxypropan-2-yl)-2-methylthiazolo[5,4-b]pyridin-6-yl)urea]	1 to 100
101 to 250	1 to 50	Cc1nc2c(C3(CF)CC3)c(NC(=O)Nc3ccc(-n4nccn4)c(Cl)c3)cnc2s1 [Compound 107, 1-(3-Chloro-4-(2H-1,2,3-triazol-2-yl)phenyl)-3-(7-(1-(fluoromethyl)cyclopropyl)-2-methylthiazolo[5,4-b]pyridin-6-yl)urea]	1 to 100
26 to 100	1 to 50	Cc1nc2c(C(C)C)c(NC(=O)Nc3cnc(-n4nccn4)c(Cl)c3)cnc2s1 [Compound 115, 1-(5-Chloro-6-(2H-1,2,3-triazol-2-yl)pyridin-3-yl)-3-(7-isopropyl-2-methylthiazolo[5,4-b]pyridin-6-yl)urea]	1 to 100
251 to 500	1 to 50	COc1ncc(NC(=O)Nc2cnc3sc(C)nc3c2C(C)C)cc1Cl [Compound 119, 1-(5-Chloro-6-methoxypyridin-3-yl)-3-(7-isopropyl-2-methylthiazolo[5,4-b]pyridin-6-yl)urea]	101 to 500
251 to 500	1 to 50	Cc1nc2c(C3CC3)c(NC(=O)Nc3ccc(-n4nccn4)c(Cl)c3)cnc2s1 [Compound 168, 1-(3-Chloro-4-(2H-1,2,3-triazol-2-yl)phenyl)-3-(7-cyclopropyl-2-methylthiazolo[5,4-b]pyridin-6-yl)urea]	501 to 1500
501 to 1500	51 to 100	COc1ncc(Cl)cc1NC(=O)Nc1cnc2sc(C)nc2c1C1CC1 [Compound 192, 1-(5-Chloro-2-methoxypyridin-3-yl)-3-(7-cyclopropyl-2-methylthiazolo[5,4-b]pyridin-6-yl)urea]	101 to 500
251 to 500	1 to 50	Cc1nc2c(C3(CO)CC3)c(NC(=O)Nc3cnc(-n4nccn4)c(C(F)(F)F)c3)cnc2s1 [Compound 223, 1-(6-(2H-1,2,3-Triazol-2-yl)-5-(trifluoromethyl)pyridin-3-yl)-3-(7-(1-(hydroxymethyl)cyclopropyl)-2-methylthiazolo[5,4-b]pyridin-6-yl)urea]	1 to 100
